From publication PMC9528096, “A phase Ib study of camrelizumab in combination with apatinib and fuzuloparib in patients with recurrent or metastatic triple-negative breast cancer” (BMC Medicine, 2022)

Assay: clinical
Set-up: species or system human
Settings: in vivo; for Tmax: human
Experimental: Adverse events were monitored throughout the study treatment from informed consent until 90 days after the last camrelizumab dose or 30 days after the last apatinib or fuzuloparib dose, whichever occurred later, and were graded according to the National Cancer Institute Common Terminology Criteria for Adverse Events version 5.0. Radiographic assessment was performed by computed tomography (CT) or magnetic resonance imaging (MRI) according to RECIST version 1.1 at baseline and every two cycles. Complete or partial responses were confirmed 4 weeks later. Blood samples for pharmacokinetic analysis of apatinib and fuzuloparib were collected in all patients enrolled in the dose-finding part and in six to eight patients enrolled in the dose-expansion part. To evaluate the pharmacokinetic data of single-agent apatinib, patients intended for pharmacokinetic analysis were given apatinib alone 3 days before combination treatment initiation. Blood samples were collected 30 min pre-dose, 30 min, 1 h, 2 h, 3 h, 4 h, 8 h, 12 h, and 24 h post-dose on day − 3 of cycle 0 and day 1 of cycle 1.
The primary endpoint was DLT in cycle 1.
Safety and antitumor activity analyses were performed in all patients who received at least one dose of the study treatment. Continuously distributed data were summarized as mean (standard deviation) or median (range). Categorical data were summarized by the number and percentage of patients in each category. Adverse events were summarized descriptively. Two-sided 95% confidence intervals (CIs) for ORR and DCR were calculated using the Clopper-Pearson method. The PFS, DOR, and 12-month OS rate and their corresponding 95% CIs were estimated using the Kaplan–Meier method. Analyses of safety and antitumor activity were performed with SAS version 9.4. Pharmacokinetic parameters were descriptively summarized with non-compartmental analysis using WinNonlin (version 8.2).

Structure (SMILES) | Tmax [h] | Apatinib exposure before and after co-administration with fuzuloparib
N#CC1(c2ccc(NC(=O)c3cccnc3NCc3ccncc3)cc2)CCCC1 [Apatinib, apatinib] | 2 | comparable
O=C(c1cc(Cc2n[nH]c(=O)c3ccccc23)ccc1F)N1CCn2nc(C(F)(F)F)nc2C1 [Fuzuloparib, fuzuloparib] | 3 | 
